Laboratory results published in US20100286145A1, “ISOPHTHALAMIDE DERIVATIVES INHIBITING BETA-SECRETASE ACTIVITY” (CoMentis, Inc., priority 2007, published 2010).
pIC50, pKi: −log10 of the molar value. Where two headings read alike, the source gives them in different places.

Tests used:
[1] = target: memapsin 2 (Homo sapiens, UniProt P56817); assay: Inhibition of memapsin 2 beta-secretase activity (fluorogenic substrate FS-2); assay type: biochemical; settings: memapsin 2, pH 4, 37° C., read-out: M2Ki
Summary of the method: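 Memapsin 2 pre-incubated 20 min with compound at pH 4, 37° C, then FS-2 substrate (MCA-SEVNLDAEFK-DNP, APP Swedish cleavage site) added. Rate of fluorescence increase compared with uninhibited controls, fitted to a tight-binding inhibition model.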

[2] = system: Aβ production in Chinese hamster ovary cells that over-express human APP695 with the London and Swedish mutations; assay: Cellular Aβ IC50 determination (Aβ40 sandwich ELISA); assay type: cell-based; settings: Cricetulus griseus
Summary of the method: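 CHO cells overexpressing human APP695 with London and Swedish mutations, seeded at 10% confluency, treated with compounds up to about 4 μM final (0.4% DMSO). Secreted Aβ40 measured by sandwich ELISA relative to control and fitted to a 4-parameter IC50 model.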

[3] = cellular Aβ production, read-out: IC50

Sequence of memapsin 2 (P56817 46-501): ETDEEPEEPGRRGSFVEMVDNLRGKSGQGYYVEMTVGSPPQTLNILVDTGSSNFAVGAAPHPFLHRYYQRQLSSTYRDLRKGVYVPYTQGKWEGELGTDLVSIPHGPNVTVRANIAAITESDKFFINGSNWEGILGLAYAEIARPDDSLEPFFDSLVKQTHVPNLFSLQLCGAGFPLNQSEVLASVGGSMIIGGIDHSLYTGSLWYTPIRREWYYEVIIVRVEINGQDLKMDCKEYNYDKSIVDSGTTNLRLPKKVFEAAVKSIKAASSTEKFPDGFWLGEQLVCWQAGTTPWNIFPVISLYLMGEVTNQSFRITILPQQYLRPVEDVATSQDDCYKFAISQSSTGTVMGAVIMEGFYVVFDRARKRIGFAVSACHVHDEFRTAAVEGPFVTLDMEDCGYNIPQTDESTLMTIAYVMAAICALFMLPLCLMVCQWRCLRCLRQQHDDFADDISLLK

pKi ([1]; fluorogenic substrate FS-2)	pIC50 [2, 3]	pKi ([1]; 20 minutes pre-incubation)	Structure (SMILES)	pIC50 [2]
> 6.52	> 6.00		COc1cccc(CNC[C@@H](O)[C@H](Cc2ccccc2)NC(=O)c2cc(C(=O)N(C)Cc3nc(C)cs3)cc(-c3ccccc3OC)c2)c1 [Compound 210, N3-((2S,3R)-3-hydroxy-4-(3-methoxybenzylamino)-1-phenylbutan-2-yl)-2′-methoxy-N5-methyl-N5-((4-methylthiazol-2-yl)methyl)biphenyl-3,5-dicarboxamide]	
	> 6.00	6.30 to 6.52	COC(=O)c1cccc(CNC[C@@H](O)[C@H](Cc2ccccc2)NC(=O)c2cccc(C(=O)N(C)Cc3nc(C)cs3)c2)c1 [Compound 141, methyl 3-(((2R,3S)-2-hydroxy-3-(3-(methyl((4-methylthiazol-2-yl)methyl)carbamoyl)benzamido)-4-phenylbutylamino)methyl)benzoate]	
> 6.52	> 6.00		CC(=O)Nc1cc(CNC[C@@H](O)[C@H](Cc2ccccc2)NC(=O)c2cccc(C(=O)N(C)Cc3nc(C)cs3)c2)cc(C(F)(F)F)c1 [Compound 276, N1-((2S,3R)-4-(3-acetamido-5-(trifluoromethyl)benzylamino)-3-hydroxy-1-phenylbutan-2-yl)-N3-methyl-N3-((4-methylthiazol-2-yl)methyl)isophthalamide]	
> 6.52	> 6.00		Cc1csc(CN(C)C(=O)c2cc(C(=O)N[C@@H](Cc3ccccc3)[C@H](O)CNCc3cncc(C(C)(C)F)c3)cc(-n3cccc3)c2)n1 [Compound 250, N1-((2S,3R)-4-((5-(2-fluoropropan-2-yl)pyridin-3-yl)methylamino)-3-hydroxy-1-phenylbutan-2-yl)-N3-methyl-N3-((4-methylthiazol-2-yl)methyl)-5-(1H-pyrrol-1-yl)isophthalamide]	
> 6.52	> 6.00		Cc1csc(CN(C)C(=O)c2cc(C(=O)N[C@@H](Cc3ccccc3)[C@H](O)CNCc3cccc(C(C)(C)C)c3)cc(N(C)C)c2)n1 [Compound 268, N1-((2S,3R)-4-(3-tert-butylbenzylamino)-3-hydroxy-1-phenylbutan-2-yl)-5-(dimethylamino)-N3-methyl-N3-((4-methylthiazol-2-yl)methyl)isophthalamide]	
> 6.52	5.30 to 6.00		COc1cccc(CNC[C@@H](O)[C@H](Cc2ccccc2)NC(=O)c2cc(C(=O)N(C)Cc3nc(C)cs3)cc(N3CCC(O)C3)c2)c1 (stereo partly drawn) [Compound 241, N1-((2S,3R)-3-hydroxy-4-(3-methoxybenzylamino)-1-phenylbutan-2-yl)-5-(3-hydroxypyrrolidin-1-yl)-N3-methyl-N3-((4-methylthiazol-2-yl)methyl)isophthalamide]	
	> 6.00	> 6.52	COc1cccc(CNC[C@@H](O)[C@H](Cc2ccccc2)NC(=O)c2cc(CO)cc(C(=O)N(C)Cc3nc(C)cs3)c2)c1 [Compound 49, N1-((2S,3R)-3-hydroxy-4-(3-methoxybenzylamino)-1-phenylbutan-2-yl)-5-(hydroxymethyl)-N3-methyl-N3-((4-methylthiazol-2-yl)methyl)isophthalamide]	
	> 6.00	> 6.52	Cc1csc(CNC(=O)c2cc(C(=O)N[C@@H](Cc3ccccc3)[C@H](O)CNCc3cncc(C(C)C)c3)cc(-c3ncco3)c2)n1 [Compound 197, N1-((2S,3R)-3-hydroxy-4-((5-isopropylpyridin-3-yl)methylamino)-1-phenylbutan-2-yl)-N3-((4-methylthiazol-2-yl)methyl)-5-(oxazol-2-yl)isophthalamide]	
	> 6.00	> 6.52	Cc1csc(CN(C(=O)c2cccc(C(=O)N[C@@H](Cc3ccccc3)[C@H](O)CNCc3cncc(C(F)(F)F)c3)c2)C2CC2)n1 [Compound 59, N1-cyclopropyl-N3-((2S,3R)-3-hydroxy-1-phenyl-4-((5-(trifluoromethyl)pyridin-3-yl)methylamino)butan-2-yl)-N1-((4-methylthiazol-2-yl)methyl)isophthalamide]	

Further lines, the compound ahead of its results:

Structure (SMILES)	pKi ([1]; fluorogenic substrate FS-2)	pIC50 [2, 3]	pKi ([1]; 20 minutes pre-incubation)	pIC50 [2]
C[C@@H](NC(=O)c1cc(C(=O)N[C@@H](Cc2ccccc2)[C@H](O)CNCc2cccc(C(C)(C)C)c2O)cc(N(C)S(C)(=O)=O)c1)c1ccccc1 [Compound 79, N1-((2S,3R)-4-(3-tert-butyl-2-hydroxybenzylamino)-3-hydroxy-1-phenylbutan-2-yl)-5-(N-methylmethylsulfonamido)-N3-((R)-1-phenylethyl)isophthalamide]		> 6.00	> 6.52	
COc1cccc(CNC[C@@H](O)[C@H](Cc2ccccc2)NC(=O)c2cc(C(=O)N(C)Cc3nc(C)cs3)cc(-c3cccnc3)c2)c1 [Compound 189, N1-((2S,3R)-3-hydroxy-4-(3-methoxybenzylamino)-1-phenylbutan-2-yl)-N3-methyl-N3-((4-methylthiazol-2-yl)methyl)-5-(pyridin-3-yl)isophthalamide]		> 6.00	> 6.52	
COc1cccc(F)c1CNC[C@@H](O)[C@H](Cc1ccccc1)NC(=O)c1cccc(C(=O)N(C)Cc2nc(C)cs2)c1 [Compound 50, N1-((2S,3R)-4-(2-fluoro-6-methoxybenzylamino)-3-hydroxy-1-phenylbutan-2-yl)-N3-methyl-N3-((4-methylthiazol-2-yl)methyl)isophthalamide]		> 6.00	> 6.52	
Cc1csc(CN(C)C(=O)c2cccc(C(=O)N[C@@H](Cc3ccccc3)[C@H](O)CNCc3cncc(N(C)C)c3)c2)n1 [Compound 47, N1-((2S,3R)-4-((5-(dimethylamino)pyridin-3-yl)methylamino)-3-hydroxy-1-phenylbutan-2-yl)-N3-methyl-N3-((4-methylthiazol-2-yl)methyl)isophthalamide]		> 6.00	> 6.52	
Cc1csc(CN(C)C(=O)c2cccc(C(=O)N[C@@H](Cc3ccccc3)[C@H](O)CNCc3cncc(C(C)(C)F)c3)c2)n1 [Compound 92, N1-((2S,3R)-4-((5-(2-fluoropropan-2-yl)pyridin-3-yl)methylamino)-3-hydroxy-1-phenylbutan-2-yl)-N3-methyl-N3-((4-methylthiazol-2-yl)methyl)isophthalamide]		> 6.00	> 6.52	
Cc1csc(CN(C)C(=O)c2cccc(C(=O)N[C@@H](Cc3ccccc3)[C@H](O)CNCc3cc(C#N)cc(C(C)C)c3)c2)n1 [Compound 248, N1-((2S,3R)-4-(3-cyano-5-isopropylbenzylamino)-3-hydroxy-1-phenylbutan-2-yl)-N3-methyl-N3-((4-methylthiazol-2-yl)methyl)isophthalamide]	> 6.52	> 6.00		
Cc1csc(CN(C)C(=O)c2cc(C(=O)N[C@@H](Cc3ccccc3)[C@H](O)CNCc3cc(OC(=O)N(C)C)cc(C(C)C)c3)cc(N(C)C)c2)n1 [Compound 209, 3-(((2R,3S)-3-(3-(dimethylamino)-5-(methyl((4-methylthiazol-2-yl)methyl)carbamoyl)benzamido)-2-hydroxy-4-phenylbutylamino)methyl)-5-isopropylphenyl dimethylcarbamate]			> 6.52	> 6.00
C=C(C)c1cccc(CNC[C@@H](O)[C@H](Cc2ccccc2)NC(=O)c2cccc(C(=O)N(C)Cc3nc(C)cs3)c2)c1 [Compound 168, N1-((2S,3R)-3-hydroxy-1-phenyl-4-(3-(prop-1-en-2-yl)benzylamino)butan-2-yl)-N3-methyl-N3-((4-methylthiazol-2-yl)methyl)isophthalamide]		> 6.00	> 6.52	
CN(Cc1nc(CF)cs1)C(=O)c1cccc(C(=O)N[C@@H](Cc2ccccc2)[C@H](O)CNCc2cncc(C(F)(F)F)c2)c1 [Compound 280, N1-((4-(fluoromethyl)thiazol-2-yl)methyl)-N3-((2S,3R)-3-hydroxy-1-phenyl-4-((5-(trifluoromethyl)pyridin-3-yl)methylamino)butan-2-yl)-N1-methylisophthalamide]	> 6.52	> 6.00		
Cc1csc(CN(C)C(=O)c2cccc(C(=O)N[C@@H](Cc3ccccc3)[C@H](O)CNCc3cc(C(C)C)nc(C(C)C)c3)c2)n1 [Compound 106, N1-((2S,3R)-4-((2,6-diisopropylpyridin-4-yl)methylamino)-3-hydroxy-1-phenylbutan-2-yl)-N3-methyl-N3-((4-methylthiazol-2-yl)methyl)isophthalamide]		> 6.00	> 6.52	
Cc1csc(CN(C)C(=O)c2cc(C(=O)N[C@@H](Cc3ccccc3)[C@H](O)CNCc3cncc(C(C)C)c3)cc(-c3cccn3C)c2)n1 [Compound 257, N1-((2S,3R)-3-hydroxy-4-((5-isopropylpyridin-3-yl)methylamino)-1-phenylbutan-2-yl)-N3-methyl-5-(1-methyl-1H-pyrrol-2-yl)-N3-((4-methylthiazol-2-yl)methyl)isophthalamide]	> 6.52	> 6.00		
Cc1csc(CN(C)C(=O)c2cccc(C(=O)N[C@@H](Cc3ccccc3)[C@H](O)CNCc3cc(C(C)C)cc(S(C)(=O)=O)c3)c2)n1 [Compound 150, N1-((2S,3R)-3-hydroxy-4-(3-isopropyl-5-(methylsulfonyl)benzylamino)-1-phenylbutan-2-yl)-N3-methyl-N3-((4-methylthiazol-2-yl)methyl)isophthalamide]		> 6.00	> 6.52	
COc1cc(C(=O)NCc2nc(C)cs2)cc(C(=O)N[C@@H](Cc2ccccc2)[C@H](O)CNCc2ccnc(C(C)C)c2)c1 [Compound 83, N1-((2S,3R)-3-hydroxy-4-((2-isopropylpyridin-4-yl)methylamino)-1-phenylbutan-2-yl)-5-methoxy-N3-((4-methylthiazol-2-yl)methyl)isophthalamide]		> 6.00	> 6.52	
